Data: patent publication US20140162974A1, “METHODS FOR MODULATION OF PHOSPHORUS AND FGF23” (Luitpold Pharmaceuticals, Inc., priority 2012, published 2014)
Entries after “also recorded” stand apart in the source; their conditions may differ.

Assays:
Assay type in all cases: in vivo, human
FGF-23 C-Terminal = test: VIT-23 study: plasma FGF-23 C-terminal assay
Protocol: Subjects with a hemoglobin (Hgb) that meets inclusion requirements and no exclusionary criteria will be offered participation in this 5-6 week study.
During the Treatment Phase, all subjects received a maximum dose of 1000 mg of IV iron. […] If no reaction occurred, the remainder of the dose (up to 15 mg/kg or 1000 mg including the test dose) was given as per Investigator. The infusion was given only when resuscitative techniques for the treatment of anaphylactic and anaphylactoid reactions were readily available.
Primary Endpoints included changes in blood and urine markers of phosphate and bone metabolism following IV iron administration. Blood markers include (all performed in morning after 10 hr fast): Serum Phosphate; Serum Potassium; Plasma Fibroblast growth factor 23 via 2nd generation Immutopics C-terminal assay; Serum Vitamin D; 1, 25 dihydroxy Vitamin D (1,25 [OH]2D); 25 hydroxy Vitamin D (250H-D); Serum Osteocalcin; Serum Bone-specific Alkaline phosphatase; Plasma intact Parathyroid hormone; Serum creatinine; Hepcidin; Reticulocyte count; Hemoglobin; Ferritin; Transferrin Saturation (TSAT); and Sample for archive. Urine markers (collected over a 3 hour period in the morning) (ratio of phosphate to creatinine determined to offset inter-patient variability in urine concentration) include: Phosphate; Creatinine; Calcium; Amino acids; Glucose; Albumin; Deoxypyridinoline cross link (Dpd)—a collagen type I cross link that indicates bone resorption; Beta-2-microglobulin; and Sample for archive.
All subjects had laboratory assessments at Screening, Day 0, Day 1 (24 hrs), Day 7, Day 14, and Day 35. Any subject with a change in phosphate value after Day 0 had additional phosphate measurements at 14 day intervals (following Day 35) until the level returned to normal (as defined by the laboratory reference range). Safety evaluation for all subjects included adverse events, physical examination, including vital signs, and laboratory assessments. Three hour urine collections was also performed on Day 0, Day 1 (24 hrs), Day 7, Day 14, and Day 35. Any subject who withdrew from the study will receive a follow up phone call 30 days after they received study drug.
The “baseline” was the value at Day 0 prior to administration of any study drug. The value of “n” for the baseline measurement may have be different at each study visit because the baseline values were assessed only for those individuals with data at the given visit.

[1] = system: serum phosphate, urinary fractional excretion of phosphate; test: Example 3 trial: serum and urinary phosphate; conditions: for mean urinary FEPi over time compared with baseline: by day 7 through day 35; for course of serum phosphate after day 1: through day 35
Protocol: (§1) Study visits were on Days 0 (when iron was infused), 1 (24 hours after iron infusion), 7, 14, and 35. The primary objectives were to determine the effect of iron deficiency on cFGF23 and iFGF23 levels and the effect of intravenous iron on iFGF23 and cFGF23 levels.
(§2) Randomization occurred centrally via a fax-based system. […] The complete dose was infused over 15 minutes on day 0. […] An initial test dose of 25 mg was administered slowly over 5 minutes.
(§3) Laboratory testing of blood and three-hour urine collections was performed at the screening visit and on study days 0 (when iron was infused), 1 (24 hours after iron infusion), 7, 14, and 35 (see e.g., FIG. 2A). Any subject who experienced a reduction in serum phosphate below the normal range after day 0 underwent additional phosphate measurements at 14 day intervals following day 35 until the level returned to the normal reference range. Safety evaluations of all subjects included ascertainment of adverse events, physical examinations at all study visits, and laboratory assessments. Any subject who withdrew from the study received a follow-up phone call to ascertain adverse events 30 days after they received study drug.
The pre-specified primary endpoints were changes in blood and urine markers of phosphate and bone metabolism among the evaluable population, defined as those subjects with baseline and at least one post-randomization set of FGF23 and blood and urinary phosphate levels. Secondary endpoints included the proportion of subjects achieving a hemoglobin increase […] anytime between baseline and day 35, and the change from baseline to highest hemoglobin, ferritin, and TSAT anytime during the 35-day study period. Additional safety endpoints included incidence, severity, and seriousness of adverse events, and incidence of treatment-emergent abnormal clinical laboratory values in the safety population, defined as all subjects who received the study drug regardless of subsequent laboratory testing.
(§4) Blood and urine samples were sent to a central laboratory for analysis (Covance Central Laboratory Service, Indianapolis, Ind.). Hemoglobin, blood counts, iron indices, electrolytes, and serum and urinary phosphate and creatinine were measured with standard, automated, multi-analyte techniques. Urinary fractional excretion of phosphate (FEPi) was calculated from the three-hour, morning urine collections as urinary phosphate x serum creatinine/serum phosphate x urinary creatinine. Serum levels of 25-hydroxyvitamin D and 1,25-dihydroxyvitamin D were measured in duplicate by radioimmunoassay (DiaSorin, Stillwater, Minn.) with intra-assay coefficients of variation (CV)<11.6%. Plasma C-terminal FGF23 (cFGF23) was measured in duplicate in EDTA-plasma samples using a human FGF23 immunometric assay capable of detecting both the intact peptide and its C-terminal fragments (Immutopics, San Clemente, Ca) with intra-assay CV≦3.8%. Because cFGF23 testing was performed in parallel with rolling enrollment and follow-up, all cFGF23 assay plates tested combinations of baseline and post-intervention samples from multiple study participants. Serum intact FGF23 (iFGF23) was measured in batches of baseline and post-intervention samples from multiple study participants at study end using an immunometric assay that detects the intact peptide exclusively (Kyowa Medex Company, Shizuoka, Japan) with intra-assay CV<2.7%. Serum hepcidin levels were measured on days 0, 7, and 35 using an enzyme-linked immunosorbent assay (Intrinsic LifeSciences, La Jolla, Calif.) with intra-assay CV≦19%. Urinary amino acids, glucose, albumin, and beta 2 microglobulin were measured to test for the possibility of global proximal tubular dysfunction. Urinary deoxypyridinoline cross link, and serum osteocalcin and bone-specific alkaline phosphatase were measured to assess bone turnover.
Baseline characteristics are presented as mean±standard error for continuous variables and as proportions for categorical variables. […]

intact FGF23 (iFGF23) = test: Example 3 trial: serum intact FGF23; conditions: for effect on iFGF23 levels: by day 1 (24 hours); for Intact FGF23, Day 1 / Intact FGF23, Day 7 / Intact FGF23, Day 14 / Intact FGF23, Day 35: mean ± standard error, unit from the 3rd table
Protocol: as §1, §2, §3, §4
Baseline characteristics are presented as mean±standard error for continuous variables and as proportions for categorical variables. The association between iron indices and baseline and change in FGF23 levels was assessed with Spearman correlations. Restricted maximum likelihood-based repeated measures analyses (linear mixed models) that considered the effects of treatment, visit, and treatment x time interaction, with baseline values treated as a fixed covariate were used for the primary analyses of mean changes from baseline in continuous markers of phosphate homeostasis. The models employed unstructured covariance structures without imputing missing values. All outcome variables that were not normally distributed were analyzed after natural log-transformation. […]

| Substance | FGF-23 C-Terminal, EDTApl-RUO, Visit, Mean (FGF-23 C-Terminal; Day 1) [RU/mL] | FGF-23 C-Terminal, EDTApl-RUO, Change to Visit, Mean (FGF-23 C-Terminal; Day 1 vs baseline) [RU/mL] | FGF-23 C-Terminal, EDTApl-RUO, Visit, Mean (FGF-23 C-Terminal; Day 7) [RU/mL] | FGF-23 C-Terminal, EDTApl-RUO, Change to Visit, Mean (FGF-23 C-Terminal; Day 7 vs baseline) [RU/mL] | FGF-23 C-Terminal, EDTApl-RUO, Visit, Mean (FGF-23 C-Terminal; Day 14) [RU/mL] | FGF-23 C-Terminal, EDTApl-RUO, Change to Visit, Mean (FGF-23 C-Terminal; Day 14 vs baseline) [RU/mL] | FGF-23 C-Terminal, EDTApl-RUO, Visit, Mean (FGF-23 C-Terminal; Day 35) [RU/mL] | FGF-23 C-Terminal, EDTApl-RUO, Change to Visit, Mean (FGF-23 C-Terminal; Day 35 vs baseline) [RU/mL] | FGF-23 C-Terminal, EDTApl-RUO, Visit, Mean (FGF-23 C-Terminal; Minimum post-baseline value) [RU/mL] | FGF-23 C-Terminal, EDTApl-RUO, Change to Visit, Mean (FGF-23 C-Terminal; Minimum value vs baseline) [RU/mL] | mean urinary FEPi over time compared with baseline [1] | mean urinary fractional excretion of phosphate (FEPi) on day 1 ([1]; in vivo) | serum phosphate within 24 hours after iron administration ([1]; in vivo) | course of serum phosphate after day 1 [1] | Intact FGF23, Change from baseline (intact FGF23 (iFGF23); Day 1) [%] | Intact FGF23, Change from baseline (intact FGF23 (iFGF23); Day 7) [%] | Intact FGF23, Change from baseline (intact FGF23 (iFGF23); Day 14) [%] | Intact FGF23, Change from baseline (intact FGF23 (iFGF23); Day 35) [%] | effect on iFGF23 levels (intact FGF23 (iFGF23)) | Intact FGF23, Day 1 (intact FGF23 (iFGF23)) [pg/mL] | further results |
| --- | --- | --- | --- | --- | --- | --- | --- | --- | --- | --- | --- | --- | --- | --- | --- | --- | --- | --- | --- | --- | --- |
| iron dextran [reference compound] | 151.60 | −716.03 | 114.13 | −682.42 | 107.39 | −733.96 | 360.71 | −683.57 | 94.00 | −732.67 | no significant change over time | trended downwards | increased modestly | returned to near baseline levels by day 7 and remained stable for the remainder of the study | −13.4 | −4.4 | −1.3 | −9.3 | no significant changes; also recorded: but not iron dextran induced a significant increase | 24.6 ± 1.9 | Intact FGF23, Day 7 (intact FGF23 (iFGF23)): 27.5 ± 1.7 pg/mL; Intact FGF23, Day 14 (intact FGF23 (iFGF23)): 28.4 ± 2.1 pg/mL; Intact FGF23, Day 35 (intact FGF23 (iFGF23)): 28.3 ± 1.7 pg/mL |
| polynuclear iron (III)-hydroxide 4(R)-(poly-(1→4)-O-α-glucopyranosyl)-oxy-2(R),3(S),5(R),6-tetrahydroxy-hexanoate [FCM] | 176.80 | −648.30 | 165.23 | −699.73 | 170.12 | −584.59 | 141.56 | −692.29 | 98.73 | −684.57 | increased significantly compared with baseline | trended downwards | increased modestly | returning towards normal by day 35; also recorded: transient and asymptomatic reductions | 128.0 | 91.8 | 59.1 | 2.0 | increased significantly by day 1; also recorded: significant increase | 65.2 ± 8.0 | day of nadir in serum phosphate ([1]; FCM subjects stratified by serum phosphate<2.0 mg/dL): 14 days; decrease in serum phosphate by day 7 ([1]; evaluable population): 0.6 mg/dL; decrease in serum phosphate by day 14 ([1]; evaluable population): 0.7 mg/dL; subjects in whom serum phosphate decreased to <2.0 mg/dL ([1]; in vivo): 10 subjects; FEPi in FCM low phosphate subgroup vs the remaining ([1]; stratified analysis, peaked by day 14): increased to a significantly greater extent in the low phosphate subgroup; Intact FGF23, Day 7 (intact FGF23 (iFGF23)): 54.9 ± 18.0 pg/mL; Intact FGF23, Day 14 (intact FGF23 (iFGF23)): 45.8 ± 6.9 pg/mL; Intact FGF23, Day 35 (intact FGF23 (iFGF23)): 28.1 ± 2.9 pg/mL; iFGF23 in FCM subjects who developed serum phosphate<2.0 mg/dL vs the remaining (intact FGF23 (iFGF23); stratified analysis): greater iFGF23 by day 1 that persisted through day 14 |
